# Measured values: PubChem BioAssay AID1259407 (Chemical Carcinogenesis Research Information System (CCRIS), 2018)
# Calls of active or inactive are those of the source. No rule for the calls is given here.
# System: CCRIS mutagenicity, Ames/micronucleus/aberration tests
# Assay: CCRIS mutagenicity studies
smiles,measurement,setting,value
O=NN1CCCCC1,mutagenic call,"Test System: AMES SALMONELLA TYPHIMURIUM, Strain/Indicator: TA98, Metabolic Activation: HAMSTER, LIVER, S-9, AROCLOR 1254 (10%), Method: PREINCUBATION",active; positive
same,mutagenic call,"Test System: AMES SALMONELLA TYPHIMURIUM, Strain/Indicator: TA98, Metabolic Activation: HAMSTER, LIVER, S-9, AROCLOR 1254 (10%), Method: STANDARD PLATE",active; positive
same,mutagenic call,"Test System: AMES SALMONELLA TYPHIMURIUM, Strain/Indicator: TA98, Metabolic Activation: HAMSTER, LIVER, S-9, AROCLOR 1254, Method: PREINCUBATION",active; positive
same,mutagenic call,"Test System: AMES SALMONELLA TYPHIMURIUM, Strain/Indicator: TA98, Metabolic Activation: HAMSTER, LIVER, S-9, AROCLOR 1254, Method: STANDARD PLATE",active; positive
same,mutagenic call,"Test System: AMES SALMONELLA TYPHIMURIUM, Strain/Indicator: TA98, Metabolic Activation: NONE, Method: PREINCUBATION",inactive; negative
same,mutagenic call,"Test System: AMES SALMONELLA TYPHIMURIUM, Strain/Indicator: TA98, Metabolic Activation: NONE, Method: STANDARD PLATE",inactive; negative
same,mutagenic call,"Test System: AMES SALMONELLA TYPHIMURIUM, Strain/Indicator: TA98, Metabolic Activation: RAT, LIVER, S-9, AROCLOR 1254 (10%), Method: PREINCUBATION",inactive; negative
same,mutagenic call,"Test System: AMES SALMONELLA TYPHIMURIUM, Strain/Indicator: TA98, Metabolic Activation: RAT, LIVER, S-9, AROCLOR 1254 (10%), Method: STANDARD PLATE",inactive; negative
same,mutagenic call,"Test System: AMES SALMONELLA TYPHIMURIUM, Strain/Indicator: TA98, Metabolic Activation: RAT, LIVER, S-9, AROCLOR 1254, Method: PREINCUBATION",inactive; negative
same,mutagenic call,"Test System: AMES SALMONELLA TYPHIMURIUM, Strain/Indicator: TA98, Metabolic Activation: RAT, LIVER, S-9, AROCLOR 1254, Method: STANDARD PLATE",inactive; negative
same,mutagenic call,"Test System: AMES SALMONELLA TYPHIMURIUM, Strain/Indicator: TA100, Metabolic Activation: HAMSTER, LIVER, S-9, AROCLOR 1254 (10%), Method: PREINCUBATION",active; positive
same,mutagenic call,"Test System: AMES SALMONELLA TYPHIMURIUM, Strain/Indicator: TA100, Metabolic Activation: HAMSTER, LIVER, S-9, AROCLOR 1254 (10%), Method: STANDARD PLATE",active; positive
same,mutagenic call,"Test System: AMES SALMONELLA TYPHIMURIUM, Strain/Indicator: TA100, Metabolic Activation: HAMSTER, LIVER, S-9, AROCLOR 1254, Method: PREINCUBATION",active; positive
same,mutagenic call,"Test System: AMES SALMONELLA TYPHIMURIUM, Strain/Indicator: TA100, Metabolic Activation: HAMSTER, LIVER, S-9, Method: PREINCUBATION",active; positive
same,mutagenic call,"Test System: AMES SALMONELLA TYPHIMURIUM, Strain/Indicator: TA100, Metabolic Activation: HUMAN, LIVER, S-9, Method: PREINCUBATION",active; positive
same,mutagenic call,"Test System: AMES SALMONELLA TYPHIMURIUM, Strain/Indicator: TA100, Metabolic Activation: MOUSE, LIVER, S-9, Method: PREINCUBATION",active; positive
same,mutagenic call,"Test System: AMES SALMONELLA TYPHIMURIUM, Strain/Indicator: TA100, Metabolic Activation: NONE, Method: PREINCUBATION",inactive; negative
same,mutagenic call,"Test System: AMES SALMONELLA TYPHIMURIUM, Strain/Indicator: TA100, Metabolic Activation: NONE, Method: STANDARD PLATE",inactive; negative
same,mutagenic call,"Test System: AMES SALMONELLA TYPHIMURIUM, Strain/Indicator: TA100, Metabolic Activation: RABBIT, LIVER, S-9, Method: STANDARD PLATE",inactive; negative
same,mutagenic call,"Test System: AMES SALMONELLA TYPHIMURIUM, Strain/Indicator: TA100, Metabolic Activation: RABBIT, LUNG, S-9, Method: STANDARD PLATE",active; positive
same,mutagenic call,"Test System: AMES SALMONELLA TYPHIMURIUM, Strain/Indicator: TA100, Metabolic Activation: RABBIT, NASAL, S-9, Method: STANDARD PLATE",inactive; negative
same,mutagenic call,"Test System: AMES SALMONELLA TYPHIMURIUM, Strain/Indicator: TA100, Metabolic Activation: RAT, LIVER, S-9, AROCLOR 1254 (10%), Method: PREINCUBATION",active; positive
same,mutagenic call,"Test System: AMES SALMONELLA TYPHIMURIUM, Strain/Indicator: TA100, Metabolic Activation: RAT, LIVER, S-9, AROCLOR 1254 (10%), Method: STANDARD PLATE",inactive; negative
same,mutagenic call,"Test System: AMES SALMONELLA TYPHIMURIUM, Strain/Indicator: TA100, Metabolic Activation: RAT, LIVER, S-9, AROCLOR 1254, Method: PREINCUBATION",active; positive
same,mutagenic call,"Test System: AMES SALMONELLA TYPHIMURIUM, Strain/Indicator: TA100, Metabolic Activation: RAT, LIVER, S-9, AROCLOR 1254, Method: STANDARD PLATE",inactive; negative
same,mutagenic call,"Test System: AMES SALMONELLA TYPHIMURIUM, Strain/Indicator: TA100, Metabolic Activation: RAT, LUNG, S-9, Method: STANDARD PLATE",inactive; negative
same,mutagenic call,"Test System: AMES SALMONELLA TYPHIMURIUM, Strain/Indicator: TA100, Metabolic Activation: RAT, NASAL, S-9, Method: STANDARD PLATE",active; positive
same,mutagenic call,"Test System: AMES SALMONELLA TYPHIMURIUM, Strain/Indicator: TA100, Metabolic Activation: TOBACCO CELLS, Method: PREINCUBATION",inactive; negative
same,mutagenic call,"Test System: AMES SALMONELLA TYPHIMURIUM, Strain/Indicator: TA104, Metabolic Activation: RAT, LIVER, S-9, AROCLOR 1254, Method: PREINCUBATION",active; positive
same,mutagenic call,"Test System: AMES SALMONELLA TYPHIMURIUM, Strain/Indicator: TA1530, Metabolic Activation: RAT LIVER, CYTOSOL, ISONIAZID, Method: PREINCUBATION",inactive; negative
same,mutagenic call,"Test System: AMES SALMONELLA TYPHIMURIUM, Strain/Indicator: TA1530, Metabolic Activation: RAT LIVER, MICROSOMES, ISONIAZID, Method: PREINCUBATION",active; positive
same,mutagenic call,"Test System: AMES SALMONELLA TYPHIMURIUM, Strain/Indicator: TA1530, Metabolic Activation: RAT, LIVER, S-9, Method: STANDARD PLATE",active; positive
same,mutagenic call,"Test System: AMES SALMONELLA TYPHIMURIUM, Strain/Indicator: TA1535, Metabolic Activation: HAMSTER, LIVER, S-9, AROCLOR 1254 (10%), Method: PREINCUBATION",active; positive
same,mutagenic call,"Test System: AMES SALMONELLA TYPHIMURIUM, Strain/Indicator: TA1535, Metabolic Activation: HAMSTER, LIVER, S-9, AROCLOR 1254, Method: PREINCUBATION",active; positive
same,mutagenic call,"Test System: AMES SALMONELLA TYPHIMURIUM, Strain/Indicator: TA1535, Metabolic Activation: NONE, Method: PREINCUBATION",inactive; negative
same,mutagenic call,"Test System: AMES SALMONELLA TYPHIMURIUM, Strain/Indicator: TA1535, Metabolic Activation: RAT, LIVER, S-9, AROCLOR 1254 (10%), Method: PREINCUBATION",active; positive
same,mutagenic call,"Test System: AMES SALMONELLA TYPHIMURIUM, Strain/Indicator: TA1535, Metabolic Activation: RAT, LIVER, S-9, AROCLOR 1254, Method: PREINCUBATION",active; positive
same,mutagenic call,"Test System: AMES SALMONELLA TYPHIMURIUM, Strain/Indicator: TA1535, Metabolic Activation: RAT, LIVER, S-9, Method: STANDARD PLATE",active; positive
same,mutagenic call,"Test System: AMES SALMONELLA TYPHIMURIUM, Strain/Indicator: TA1537, Metabolic Activation: HAMSTER, LIVER, S-9, AROCLOR 1254 (10%), Method: PREINCUBATION",inactive; negative
same,mutagenic call,"Test System: AMES SALMONELLA TYPHIMURIUM, Strain/Indicator: TA1537, Metabolic Activation: HAMSTER, LIVER, S-9, AROCLOR 1254, Method: PREINCUBATION",inactive; negative
same,mutagenic call,"Test System: AMES SALMONELLA TYPHIMURIUM, Strain/Indicator: TA1537, Metabolic Activation: NONE, Method: PREINCUBATION",inactive; negative
same,mutagenic call,"Test System: AMES SALMONELLA TYPHIMURIUM, Strain/Indicator: TA1537, Metabolic Activation: RAT, LIVER, S-9, AROCLOR 1254 (10%), Method: PREINCUBATION",inactive; negative
same,mutagenic call,"Test System: AMES SALMONELLA TYPHIMURIUM, Strain/Indicator: TA1537, Metabolic Activation: RAT, LIVER, S-9, AROCLOR 1254, Method: PREINCUBATION",inactive; negative
same,mutagenic call,"Test System: AMES SALMONELLA TYPHIMURIUM, Strain/Indicator: TA1538, Metabolic Activation: HAMSTER, LIVER, S-9, AROCLOR 1254 (10%), Method: PREINCUBATION",inactive; negative
same,mutagenic call,"Test System: AMES SALMONELLA TYPHIMURIUM, Strain/Indicator: TA1538, Metabolic Activation: HAMSTER, LIVER, S-9, AROCLOR 1254, Method: PREINCUBATION",inactive; negative
same,mutagenic call,"Test System: AMES SALMONELLA TYPHIMURIUM, Strain/Indicator: TA1538, Metabolic Activation: NONE, Method: PREINCUBATION",inactive; negative
same,mutagenic call,"Test System: AMES SALMONELLA TYPHIMURIUM, Strain/Indicator: TA1538, Metabolic Activation: RAT, LIVER, S-9, AROCLOR 1254 (10%), Method: PREINCUBATION",inactive; negative
same,mutagenic call,"Test System: AMES SALMONELLA TYPHIMURIUM, Strain/Indicator: TA1538, Metabolic Activation: RAT, LIVER, S-9, AROCLOR 1254, Method: PREINCUBATION",inactive; negative
same,mutagenic call,"Test System: AMES SALMONELLA TYPHIMURIUM, Strain/Indicator: TA1975, Metabolic Activation: RAT, LIVER, S-9, AROCLOR 1254, Method: PREINCUBATION",active; positive
same,mutagenic call,"Test System: UDS RODENT CELLS, Strain/Indicator: THY INCORP (NON-S-PHASE), Metabolic Activation: NONE, Method: LIQUID SCINTILLATION COUNTING",inactive; negative
same,mutagenic call,"Test System: UDS RODENT CELLS, Strain/Indicator: THY INCORP (NON-S-PHASE), Metabolic Activation: RAT, LIVER, S-9, SODIUM PHENOBARBITAL, Method: LIQUID SCINTILLATION COUNTING",active; positive
